Paper PMC2626250 (Toxicology and applied pharmacology, 2008)

How the values were obtained:
mouse lung microsomes = experiment: Effect of inhibitors on S-oxidation of ETA by mouse lung microsomes; format: in vitro ADME; details: 200 μM ETA
mouse liver microsomes = experiment: Effect of inhibitors on S-oxidation of ETA by mouse liver microsomes; format: in vitro ADME; details: 200 μM ETA
[1] = oral administration of therapeutic doses; ref Conte et al., 2000; cited from earlier work
EtaA = details: pH 7.5; cited from earlier work
mFmos and hFMOs = details: 4 mM GSH added following 15 minutes of incubation; 200 μM ETA

CCCC(C(=O)OCCN(CC)CC)(c1ccccc1)c1ccccc1 [SKF-525A]
activity remaining (appearance of ETASO) (mouse lung microsomes; SKF-525A 1 mM): 102.4% | activity remaining (appearance of ETASO) (mouse liver microsomes; SKF-525A 1 mM): 82.9%

CCc1cc(C(N)=S)ccn1 [ETA, ethionamide]
concentration of ETA in human plasma [1]: approximately 6 μM | concentration of ETA in lung alveolar cells [1]: ~2.4 µM | concentration of ETA in lung epithelial lining fluid [1]: ~35 µM | specificity constant for the formation of ETASO (EtaA): 0.04

N[C@@H](CCC(=O)N[C@@H](CS)C(=O)NCC(=O)O)C(=O)O [GSH, Glutathione]
ETASO removed (mFmos and hFMOs): ~50%

NC(N)=S [thiourea]
reduction of ETA oxygenation to ETASO (mouse lung microsomes; thiourea 200 μM, average): 76.9% | reduction of ETA oxygenation to ETASO (mouse liver microsomes; thiourea 200 μM, average): 73.5%
